This note sets out measurements from article PMC6627609, “Targeting Quorum Sensing: High-Throughput Screening to Identify Novel LsrK Inhibitors” (International Journal of Molecular Sciences, 2019).

For the assay, the target named is LsrK (Salmonella typhimurium, UniProt Q8ZKQ6). Briefly: biochemical. Type of assay: biochemical, S. typhimurium. To be noted: for Inhibition (%): 50 µM.

Molecules are shown by their SMILES. Where a name gives a salt, the structure may show the parent alone.

LsrK, sequence (Q8ZKQ6 whole entry): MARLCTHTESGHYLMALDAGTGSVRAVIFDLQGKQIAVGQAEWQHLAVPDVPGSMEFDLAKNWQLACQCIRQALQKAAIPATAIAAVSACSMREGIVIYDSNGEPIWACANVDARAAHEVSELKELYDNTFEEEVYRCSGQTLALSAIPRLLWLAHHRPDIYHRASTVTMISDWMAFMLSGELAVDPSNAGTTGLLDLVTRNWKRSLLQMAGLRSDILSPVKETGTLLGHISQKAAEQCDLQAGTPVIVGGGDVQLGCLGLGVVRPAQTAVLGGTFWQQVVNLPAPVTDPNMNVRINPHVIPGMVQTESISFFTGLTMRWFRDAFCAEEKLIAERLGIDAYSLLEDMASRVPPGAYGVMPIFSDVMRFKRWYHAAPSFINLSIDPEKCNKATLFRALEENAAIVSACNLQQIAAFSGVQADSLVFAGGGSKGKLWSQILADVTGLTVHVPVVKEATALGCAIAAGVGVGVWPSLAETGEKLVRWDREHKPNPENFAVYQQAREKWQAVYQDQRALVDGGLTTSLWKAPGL

As usually defined, the inhibition is the drop in the measured response relative to a control, in per cent. With `CC(C)CCC[C@@H](C)[C@H]1CC[C@H]2[C@@H]3CC(=O)[C@H]4C[C@@H](O)CC[C@]4(C)[C@H]3CC[C@]12C` [5alpha-CHOLESTAN-3beta-OL-6-ONE], the inhibition at 50 µM came to 1%. `COc1ccc2[nH]c3c(c2c1)CCN=C3C` [6-METHOXYHARMALAN]: the “Inhibition (%)” value was 2. For the compound `COc1ccc2oc(-c3ccccc3OC)cc(=O)c2c1` [6.2'-DIMETHOXYFLAVONE], the “Inhibition (%)” value is recorded as 1. In the case of `O=c1cc(-c2ccc(O)cc2)oc2ccc(O)cc12` [6.4'-DIHYDROXYFLAVONE], the “Inhibition (%)” value is recorded as 0. Same read-out and setting: under `COc1ccc(-c2cc(=O)c3cc(OC)ccc3o2)cc1` [6.4'-DIMETHOXYFLAVONE] stands 2. Turning to `O=C(O)c1nc2cc(Cl)c(Cl)cc2nc1O` [6.7-DICHLORO-3-HYDROXY-2-QUINOXALINECARBOXYLIC ACID], the “Inhibition (%)” value was 1. Still for that read-out and setting: the result for `CC(=O)OCC1=C(C(=O)O)N2C(=O)[C@@H](N)[C@H]2SC1` [7-AMINOCEPHALOSPORANIC ACID] reads 64.

Broadly, the IC50 is the point on the concentration scale where inhibition reaches its midpoint. High values mean lower potency, low ones higher potency. Regarding `CC(=O)O[C@H]1C[C@@H](OC(C)=O)C(C)(C)[C@@H]2CC(=O)[C@]3(C)[C@H](CC[C@@]4(C)[C@H](c5ccoc5)OC(=O)[C@H]5O[C@]543)[C@@]12C` [7-DEACETOXY-7-OXOKHIVORIN], the IC50 came out at 3 µM and the inhibition at 50 µM was 133%. As to `CC(=O)O[C@H]1C[C@@H](OC(C)=O)C(C)(C)C2C[C@@H](O)[C@]3(C)C(CC[C@@]4(C)[C@H](c5ccoc5)OC(=O)[C@H]5O[C@]543)[C@]21C` (stereo partly shown) [7-DEACETYLKHIVORIN], the “Inhibition (%)” value amounted to 0. `CC1(C)C(=O)C=C[C@]2(C)[C@H]3CC[C@@]4(C)[C@H](c5ccoc5)OC(=O)[C@H]5O[C@]54[C@]3(C)C=C[C@@H]12` [7-DESACETOXY-6.7-DEHYDROGEDUNIN]: the “Inhibition (%)” value was determined as 33. Consider `O=C(O)c1cc(O)c(=O)c2c(O)c(O)ccc2c1` [7-DESHYDROXYPYROGALLIN-4-CARBOXYLIC ACID], for which the midpoint of inhibition, the IC50, lay at 7 µM and the inhibition at 50 µM came out at 107%. In the case of `O=[N+]([O-])c1cccc2cn[nH]c12` [7-NITROINDAZOLE], the inhibition at 50 µM was 1%. With `O=c1cc(-c2ccccc2O)oc2cc(O)ccc12` [7.2'-DIHYDROXYFLAVONE], the “Inhibition (%)” value is recorded as 76.

For `O=c1cc(-c2ccc(O)cc2)oc2cc(O)ccc12` [7.4'-DIHYDROXYFLAVONE], the “Inhibition (%)” value came out at 1. The same measure, in the same setting: under `COc1ccc(-c2coc3cc(OC)ccc3c2=O)cc1` [7.4'-DIMETHOXYISOFLAVONE] stands 1.

For the compound `O=c1cc(-c2ccccc2)oc2c(O)c(O)ccc12` [7.8-DIHYDROXYFLAVONE], the “Inhibition (%)” value amounted to 5. The same measure, in the same setting: under `COC(=O)C[C@H]1C(C)(C)C2(O)OC34CC2C(=O)[C@]1(C)C3CC[C@]1(C)C4=CC(=O)O[C@H]1c1ccoc1` (stereo partly drawn) [8beta-HYDROXYCARAPIN. 3.8-HEMIACETAL] stands 0. For the compound `CC[C@@]1(O)C(=O)OCc2c1cc1n(c2=O)Cc2cc3cc(O)ccc3nc2-1` [10-HYDROXYCAMPTOTHECIN], the inhibition at 50 µM stood at 1%.

Turning to `CC(=O)O[C@@H]1C[C@]2(C)[C@@H](C(C)=O)CC[C@H]2[C@@H]2CCC3=CC(=O)CC[C@]3(C)[C@H]21` [11a-ACETOXYPROGESTERONE], the “Inhibition (%)” value is 23. Take `COc1ccc2c(c1)OC1(O)COc3cc(OC)c(OC)cc3C1=C2` (stereo not shown) [12a-HYDROXY-5-DEOXYDEHYDROMUNDUSERONE]: the inhibition at 50 µM is 0%.

As to `COc1cc2c(cc1OC)C1(O)C(=O)c3ccc(O)c(C(=O)O)c3OC1CO2` (stereo not shown) [12a-HYDROXY-9-DEMETHYLMUNDUSERONE-8-CARBOXYLIC ACID], the inhibition at 50 µM was found to be 3%.

In the case of `CC(C)c1ccc2c(c1)CCC1[C@](C)(CN)CCC[C@]21C.O=S(=O)(O)O` (stereo partly shown) [18-AMINOABIETA-8.11.13-TRIENE SULFATE], the “Inhibition (%)” value was found to be 1. Consider `COc1ccc(-c2cc(=O)c3c(OC(C)=O)cc(OC(C)=O)cc3o2)cc1` [ACACETIN DIACETATE], for which the inhibition at 50 µM stood at 0%. On to `NC(=O)c1ncn([C@@H]2O[C@H](CO)[C@@H](O)[C@H]2O)c1N` [ACADESINE], for which the inhibition at 50 µM turned out to be 0%.

Turning to `CCCC(=O)Nc1ccc(OCC(O)CNC(C)C)c(C(C)=O)c1` (stereo not shown) [ACEBUTOLOL HYDROCHLORIDE], the inhibition at 50 µM was determined as 0%. Regarding `CC(=O)Nc1ccccc1` [ACETANILIDE], the inhibition at 50 µM turned out to be 1%.

In the case of `COc1cc(C(C)=O)cc(OC)c1O` [ACETOSYRINGONE], the inhibition at 50 µM is 8%. As for `CC(=O)Oc1c2c(c(CC=C(C)C)c3c1C(=O)C1=C[C@@H]4CC5C(C)(C)OC(C/C=C(\C)C(=O)O)(C4=O)[C@@]15O3)OC(C)(CCC=C(C)C)C=C2` (stereo partly shown) [ACETYL I[…]], half-maximal inhibition (IC50) required 4 µM and the inhibition at 50 µM was found to be 141%. In the case of `CC(=O)N[C@@H](CC(C)C)C(=O)O` [ACETYL-L-LEUCINE], the inhibition at 50 µM is 0%.

Consider `CC(=O)N[C@@H](Cc1c[nH]c2ccccc12)C(N)=O` [ACETYLTRYPTOPHANAMIDE], for which the inhibition at 50 µM was 1%.

As for `CC(=O)N[C@@H](Cc1c[nH]c2ccccc12)C(=O)O` [ACETYLTRYPTOPHAN], the inhibition at 50 µM worked out at 6%. Same read-out and setting: the result for `O=C(O)/C=C(\CC(=O)O)C(=O)O` [ACONITIC ACID] reads 1%; that for `CCN1C[C@]2(COC)[C@H](O)C[C@H](OC)[C@@]34[C@@H]5C[C@@]6(O)[C@H](OC(=O)c7ccccc7)[C@@H]5[C@@](OC(C)=O)([C@@H]([C@H](OC)[C@H]23)[C@@H]14)[C@@H](O)[C@@H]6OC` [ACONITINE], 1%. On the same count and under the same terms, the result for `Nc1nc2c(ncn2COCCO)c(=O)[nH]1` [ACYCLOVIR] reads 8%. For the compound `Nc1ncnc2[nH]cnc12` [ADENINE], the inhibition at 50 µM amounted to 1%. With `CCN(CC)CCOC(=O)C(c1ccccc1)c1ccccc1` [ADIPHENINE HYDROCHLORIDE], the inhibition at 50 µM was determined as 0%.

For the compound `CNC[C@H](O)c1ccc(O)c(O)c1.O=C(O)C(O)C(O)C(=O)O` [ADRENALINE BITARTRATE], the “Inhibition (%)” value turned out to be 15. Still for that read-out and setting: under `O=c1ccc2cc(O[C@@H]3O[C@H](CO)[C@@H](O)[C@H](O)[C@H]3O)c(O)cc2o1` [AESCULIN] stands 1. On to `NCCCCN=C(N)N` [AGMATINE SULFATE], for which the inhibition at 50 µM was determined as 0%. Same read-out and setting: the result for `CC[C@H]1[C@@H]2C[C@H]3[C@@H]4N(C)c5ccccc5[C@]45C[C@@H]([C@H]2[C@H]5O)N3[C@@H]1O` [AJMALINE] reads 0%; that for `CC(N)C(=O)OC(C)(C)Cc1ccc(Cl)cc1` (stereo not shown) [ALAPROCLATE], 1%. As for `CCCSc1ccc2nc(NC(=O)OC)[nH]c2c1` [ALBENDAZOLE], the inhibition at 50 µM was 4%. For the compound `O=C(O)CCCCCCCC(O)C(O)CCCCCCO` (stereo not shown) [ALEURETIC ACID], the “Inhibition (%)” value came to 0. `CCCCC(CC)CNC(=N)NC(=N)NCCCCCCNC(=N)NC(=N)NCC(CC)CCCC` (stereo not shown) [ALEXIDINE HYDROCHLORIDE]: the inhibition at 50 µM was determined as 146%. Turning to `COc1cc2nc(N(C)CCCNC(=O)C3CCCO3)nc(N)c2cc1OC` (stereo not shown) [ALFLUZOSIN], the “Inhibition (%)” value is recorded as 1. Take `COCCCOc1cc(C[C@@H](C[C@H](N)[C@@H](O)C[C@H](C(=O)NCC(C)(C)C(N)=O)C(C)C)C(C)C)ccc1OC` [ALISKIREN HEMIFUMARATE]: the inhibition at 50 µM amounted to 0%.

For `O=C1NC(=O)C(=O)C(=O)N1` [ALLOXAN], the inhibition at 50 µM was 18%. As for `O=C1c2c(O)cccc2C([C@@H]2O[C@H](CO)[C@@H](O)[C@H](O)[C@H]2O)c2cc(CO)cc(O)c21` (stereo partly shown) [ALOIN], the inhibition at 50 µM stood at 45%.

In the case of `C=CCc1ccccc1OCC(O)CNC(C)C` (stereo not shown) [ALPRENOLOL], the inhibition at 50 µM stood at 0%. Consider `C=CCSCC1Nc2cc(Cl)c(S(N)(=O)=O)cc2S(=O)(=O)N1` (stereo not shown) [ALTHIAZIDE], for which the inhibition at 50 µM was 2%. On to `C=CC[C@]1(O)CC[C@H]2[C@@H]3CCC4=CC(=O)CCC4=C3C=C[C@@]21C` [ALTRENOGEST], for which the inhibition at 50 µM was determined as 0%. On the same count and under the same terms, the result for `CN(C)c1nc(N(C)C)nc(N(C)C)n1` [ALTRETAMINE] reads 19%; that for `CCN(CCCc1ccccc1)CCCc1ccccc1` [ALVERINE CITRATE], 1%. As for `CC(=O)OCC(=O)[C@@]12OC3(CCCC3)O[C@@H]1C[C@H]1[C@@H]3CCC4=CC(=O)C=C[C@]4(C)[C@@]3(F)[C@@H](O)C[C@@]12C` [AMCINONIDE], the inhibition at 50 µM was found to be 1%. On the same count and under the same terms, the result for `NCCCNCCSP(=O)(O)O` [AMIFOSTINE] reads 3%. For `N=C(N)NC(=O)c1nc(Cl)c(N)nc1N` [AMILORIDE HYDROCHLORIDE], the inhibition at 50 µM came to 1%. Same read-out and setting: under `NC1(C(=O)O)CC1` [AMINOCYCLOPROPANECARBOXYLIC ACID] stands 1%.

On to `Nc1ccc(C(=O)NCC(=O)O)cc1` [AMINOHIPPURIC ACID], for which the inhibition at 50 µM stood at 1%.

`Nc1ccc(C(=O)O)c(O)c1` [AMINOSALICYLATE SODIUM]: the inhibition at 50 µM was determined as 1%. Still for that read-out and setting: under `CN(C)CCCO[C@@H]1[C@H]2OC(C)(C)O[C@H]2O[C@@H]1[C@H](O)CO` [AMIPRILOSE] stands 2%; under `Cc1ccc(/N=C/N(C)/C=N/c2ccc(C)cc2C)c(C)c1` [AMITRAZ], 1%; under `C[C@@H]1[C@H](O)[C@@H](C)/C=C/C=C/C=C/C=C/C=C/C=C/C=C/[C@H](O[C@@H]2O[C@H](C)[C@@H](O)[C@H](N)[C@@H]2O)C[C@@H]2O[C@](O)(C[C@@H](O)C[C@@H](O)[C@H](O)CC[C@@H](O)C[C@@H](O)CC(=O)O[C@H]1C)C[C@H](O)[C@H]2C(=O)O` [AMPHOTERICIN B], 61%. On the same count and under the same terms, the result for `CC1(C)S[C@@H]2[C@H](NC(=O)[C@H](N)c3ccccc3)C(=O)N2[C@H]1C(=O)O` [AMPICILLIN SODIUM] reads 1%; that for `COc1cc(NS(C)(=O)=O)ccc1Nc1c2ccccc2nc2ccccc12` [AMSACRINE], 1%; that for `CN1CCCCC1c1ccc(-c2cccnc2)nc1` (stereo not shown) [ANABASAMINE HYDROCHLORIDE], 2%. Turning to `c1cncc([C@@H]2CCCCN2)c1` [ANABASINE HYDROCHLORIDE], the inhibition at 50 µM stood at 2%. Same read-out and setting: the result for `N=c1ccn2c(n1)O[C@H]1[C@H](O)[C@@H](CO)O[C@H]12` [ANCITABINE HYDROCHLORIDE] reads 2%.
